Experimental data as given in patent publication US7122548B2, “Triazolotriazine compounds and uses thereof” (Sugen, Inc., priority 2003, dated 2006).

These compounds were tested against T1, c-MET (Homo sapiens, UniProt P08581) (assay: Met Transphosphorylation Assay (ELISA, poly(Glu,Tyr) 4:1 substrate)). Settings: purified GST fusion protein containing the Met kinase domain.
T1 construct: Purified GST fusion protein containing the Met kinase domain, Sugen, Inc
Format: biochemical
Description: Met Transphosphorylation Assay
This assay is used to measure phosphotyrosine levels on a poly(glutamic acid:tyrosine (4:1)) substrate as a means for identifying agonists/antagonists of met transphosphorylation of the substrate.
6. Purified GST fusion protein containing the Met kinase domain, Sugen, Inc.
8. 10% aqueous (MilliQue H2O) DMSO.
10. 2× Kinase Dilution Buffer: for 100 ml, mix 10 mL 1M HEPES at pH 7.5 with 0.4 mL 5% BSA/PBS, 0.2 mL 0.1 M sodium orthovanadate and 1 mL 5M sodium chloride in 88.4 mL dH2O.
11. 4× ATP Reaction Mixture: for 10 mL, mix 0.4 mL 1 M manganese chloride and 0.02 mL 0.1 M ATP in 9.56 mL dH2O.
12. 4× Negative Controls Mixture: for 10 mL, mix 0.4 mL 1 M manganese chloride in 9.6 mL dH2O.
15. Antibody Dilution Buffer: for 100 mL, mix 10 mL 5% BSA/PBS, 0.5 mL 5% Carnation Instant Milk® in PBS and 0.1 mL 0.1 M sodium orthovanadate in 88.4 mL TBST.
16. Rabbit polyclonal antophosphotyrosine antibody, Sugen, Inc.
17. Goat anti-rabbit horseradish peroxidase conjugated antibody, Biosource, Inc.
18. ABTS Solution: for 1 L, mix 19.21 g citric acid, 35.49 g Na2HPO4 and 500 mg ABTS with sufficient dH2O to make 1 L.
19. ABTS/H2O2: mix 15 mL ABST solution with 2pL H2O2 five minutes before use.
1. Coat ELISA plates with 2 μg Poly(Glu—Tyr) in 100 μL PBS, store overnight at 4° C.
2. Block plate with 150 μL of 5% BSA/PBS for 60 min.
3. Wash plate twice with PBS, once with 50 mM Hepes buffer pH 7.4.
4. Add 50 μl of the diluted kinase to all wells. (Purified kinase is diluted with Kinase Dilution Buffer. Final concentration should be 10 ng/well.)
5. Add 25 μL of the test compound (in 4% DMSO) or DMSO alone (4% in dH2O) for controls to plate.
6. Incubate the kinase/compound mixture for 15 minutes.
7. Add 25 μL of 40 mM MnCl2 to the negative control wells.
8. Add 25 μL ATP/MnCl2 mixture to the all other wells (except the negative controls). Incubate for 5 min.
9. Add 25 μL 500 mM EDTA to stop reaction.
10. Wash plate 3× with TBST.
11. Add 100 μL rabbit polyclonal anti-Ptyr diluted 1:10,000 in Antibody Dilution Buffer to each well. Incubate, with shaking, at room temperature for one hour.
12. Wash plate 3× with TBST.
13. […] Add 100 μL per well and incubate at room temperature, with shaking, for one hour.
14. Wash plate 1× with PBS.
15. Add 100 μl of ABTS/H2O2 solution to each well.
16. If necessary, stop the development reaction with the addition of 100 μl of 0.2M HCl per well.
Met Transphosphorylation Assay Results

T1 sequence (P08581 1078-1345 limits assumed): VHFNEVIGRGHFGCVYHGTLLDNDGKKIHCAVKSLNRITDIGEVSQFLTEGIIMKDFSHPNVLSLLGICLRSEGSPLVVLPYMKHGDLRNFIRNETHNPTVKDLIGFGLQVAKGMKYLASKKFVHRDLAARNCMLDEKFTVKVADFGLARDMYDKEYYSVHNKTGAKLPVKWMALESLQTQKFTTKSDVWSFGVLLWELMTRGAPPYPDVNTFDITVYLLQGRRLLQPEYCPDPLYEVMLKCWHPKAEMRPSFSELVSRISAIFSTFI

| SMILES | IC50 |
| --- | --- |
| Cc1nn2c(Cc3ccc(O)cc3)nnc2nc1N [Example 9, 4-(7-Amino-6-methyl-[1,2,4]triazolo[4,3-b][1,2,4]triazin-3-ylmethyl)-phenol] | 830 nM |
| Oc1ccc(Cc2nnc3ncc(-c4cccs4)nn23)cc1 [Example 2, 4-(6-Thiophen-2-yl-[1,2,4]triazolo[4,3-b][1,2,4]triazin-3-ylmethyl)-phenol] | 4 nM |
| Cc1nc2nnc(Cc3ccc(O)cc3)n2nc1C [Example 8, 4-(6,7-Dimethyl-[1,2,4]triazolo[4,3-b][1,2,4]triazin-3-ylmethyl)-phenol] | > 20000 nM |
| Oc1ccc(Cc2nnc3nccnn23)cc1 [Example 7, 4-[1,2,4]Triazolo[4,3-b][1,2,4]triazin-3-ylmethyl-phenol] | 56 nM |
| Fc1ccc(Cc2nnc3ncc(-c4cccs4)nn23)cc1 [Example 5, 3-(4-Fluoro-benzyl)-6-thiophen-2-yl-[1,2,4]triazolo[4,3-b][1,2,4]triazine] | 13 nM |
| Fc1ccc(Cc2nnc3ncc(-c4ccc(Br)cc4)nn23)cc1 [Example 6, 6-(4-Bromo-phenyl)-3-(4-fluoro-benzyl)-[1,2,4]triazolo[4,3-b][1,2,4]triazine] | 45 nM |
| Fc1ccc(Cc2nnc3ncc(-c4ccccc4)nn23)cc1 [Example 4, 3-(4-Fluoro-benzyl)-6-phenyl-[1,2,4]triazolo[4,3-b][1,2,4]triazine] | 50 nM |
